Assay results: US20140148400A1, “CARBONIC ANHYDRASE INHIBITORS WITH […] ACTIVITY” (METASIGNAL THERAPEUTICS INC., priority 2010, published 2014)
Like-named read-outs stand apart in the source and are kept apart here. Blank lines part the entries; values can stand above or below the molecule they belong to.

Legend:
hCA I = hCA I (Homo sapiens, UniProt P00915); test: In vitro CA inhibition assay, hCA I; type: biochemical; details: unit from table title
hCA II = hCA II (Homo sapiens, UniProt P00918); test: In vitro CA inhibition assay, hCA II; type: biochemical
hCA IX = hCA IX (Homo sapiens, UniProt Q16790); test: In vitro CA inhibition assay, hCA IX; type: biochemical; details: cells with nM printed beside the value
human CA isoforms = details: background statement; cited from earlier work
4T1 mammary tumor cells = details: 2×10^5 4T1 cells i.v.; daily i.p. injection for 6 days from 24 hours post inoculation; imaged 24 hours after final dose
4T1 primary tumors = test: Growth of orthotopically implanted 4T1 primary tumors; type: in vivo, female BALB/c mice; details: 1×10^6 cells/mouse orthotopic; tumors established 14 days; daily i.p. for 14 days
[1] = unit from table title, read-out: hCA II inhibition data in KI

hCA I, sequence (P00915 whole entry): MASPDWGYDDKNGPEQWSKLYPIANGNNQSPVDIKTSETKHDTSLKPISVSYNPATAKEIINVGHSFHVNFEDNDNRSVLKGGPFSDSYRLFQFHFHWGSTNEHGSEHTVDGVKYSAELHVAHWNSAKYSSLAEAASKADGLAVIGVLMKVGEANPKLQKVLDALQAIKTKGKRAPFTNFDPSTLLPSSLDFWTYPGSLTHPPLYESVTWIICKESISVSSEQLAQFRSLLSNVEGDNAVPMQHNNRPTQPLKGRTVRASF

Ki (hCA I): 1 µM
Ki (hCA II; [1]): > 100 µM
SMILES: Cc1cc(=O)oc2cc(OC3OC(CO)C(O)C(O)C3O)ccc12 (single isomer, unassigned) [MST-202, 4-methylumbellifer-7-yl- -D-glucopyranoside]

Ki (hCA IX): 93 nM
Ki (hCA I): 0.59 µM
Ki (hCA II; [1]): 77 µM
SMILES: Cc1cc(=O)oc2cc(OC3OC(CO)C(O)C(O)C3O)ccc12 (single isomer, unassigned) [MST-203, 4-methylumbellifer-7-yl-1-D-galactopyranoside]

melting point: 223 °C
SMILES: Cc1cc(=O)oc2cc(OC3OCC(O)C(O)C3O)ccc12 [MST-201, 4-methylumbellifer-7-yl- -D-xylopyranoside]

Ki (hCA IX): 201 nM
Ki (hCA I): > 100 µM
Ki (hCA II; [1]): > 100 µM
SMILES: Cc1cc(=O)oc2cc(OC3OC(C)C(O)C(O)C3O)ccc12 [MST-205, 4-methylumbellifer-7-yl- -L-rhamnopyranoside]
growth of 4T1 primary tumors (caliper-based measurement) (4T1 primary tumors): Attenuates the Growth of 4T1 Primary Tumors
formation of metastases by 4T1 mammary tumor cells (tumor-derived bioluminescence) (4T1 mammary tumor cells): inhibits the formation of metastases

melting point: 238 to 240 °C
SMILES: Cc1cc(=O)oc2cc(OCCn3c([N+](=O)[O-])cnc3C)ccc12 [MST-248, 7-O-[2-(2-methyl-5-nitro-imidazol-1-yl)ethyl]-4-methylcoumarine]

melting point: 190 to 191 °C
SMILES: Cc1cc(=O)oc2ccc(OCCn3c([N+](=O)[O-])cnc3C)cc12 [MST-249, 6-O-[2-(2-methyl-5-nitro-imidazol-1-yl)ethyl]-4-methylcoumarine]

The remaining lines, values behind:

SMILES: COc1cc2oc(=O)ccc2cc1[C@@H](O)CC(C)C [6-(1S-hydroxy-3-methylbutyl)-7-methoxy-2H-chromen-2-one]
inhibition of all investigated human CA isoforms (human CA isoforms): nonselective, potent inhibitors

SMILES: Cc1cc(=O)oc2cc(O[C@H]3O[C@H](CO)[C@@H](O)[C@H](O)[C@@H]3O)ccc12 [MST-204, 4-methylumbellifer-7-yl-α-D-mannopyranoside]
formation of metastases by 4T1 mammary tumor cells (tumor-derived bioluminescence) (4T1 mammary tumor cells): reduced the formation of metastases

SMILES: C#CCOc1ccc2ccc(=S)oc2c1 [MST-217, 7-(prop-2-ynyloxy)-2H-chromene-2-thione]
melting point: 97 to 101 °C

SMILES: O=c1ccc2cc(OCc3cn(-c4ccccc4Cl)nn3)ccc2o1 [MST-225, 6-((1-(2-chlorophenyl)-1H-1,2,3-triazol-4-yl)methoxy)-2H-chromen-2-one]
melting point: 164 to 166 °C

SMILES: CC(C)(C)[Si](C)(C)Oc1ccc2oc(=O)ccc2c1 [MST-230, 6-(tert-Butyldimethylsilyloxy)-2H-chromen-2-one]
Ki (hCA II; [1]): > 200 µM

SMILES: CC(C)(C)[Si](C)(C)Oc1ccc2ccc(=O)oc2c1 [MST-231, 7-(tert-Butyldimethylsilyloxy)-2H-chromen-2-one]
Ki (hCA II): > 200 µM

SMILES: Oc1ccc2oc(=S)ccc2c1 [MST-233, 6-Hydroxy-2H-chromene-2-thione]
Ki (hCA II; [1]): > 200 µM

SMILES: C=CCOc1ccc2oc(=S)ccc2c1 [MST-240, 6-(Allyloxy)-2H-chromene-2-thione]
Ki (hCA II; [1]): > 200 µM

SMILES: N#Cc1cc2ccc(O)cc2oc1=O [MST-247]
Ki (hCA I): 104 µM

SMILES: O=c1ccc2ccccc2o1 [unsubstituted coumarin, coumarin]
inhibition of all investigated human CA isoforms (human CA isoforms): nonselective, potent inhibitors
